Data: patent US20020010154A1, “Compositions comprising cyclodextrin” (priority 2000, published 2002)
Counter-ions that a name gives are not always drawn.

Assay: Complexation constant with cyclodextrin, spectral displacement method with phenolphthalein
Format: physicochemical
Conditions: no unit in table, complexation constants in M^−1
Excerpt: A spectral displacement method with phenolphthalein is used to determine the complexation constant between cyclodextrin and a given material, especially for surfactants. This method of determining complexation constants with cyclodextrins is described in detail in the following references, which are hereby incorporated herein by reference: Sasaki, K. J., Christian, S. D., and Tucker, E. E., “Study of the Stability of 1:1 Complexes Between Aliphatic Alcohols and b-Cyclodextrins in Aqueous Solution,” Fluid Phase Equilibria, Vol. 49, (Amsterdam, Elsevier Science Publishers, 1989), pp. 281-89. Further information regarding spectral displacement methods can be found in other references, e.g. in Wilson, L. D., Siddall, S. R., and Verrall R. E., “A Spectral Displacement Study of the Binding Constants of Cyclodextrin-Hydrocarbon and—Fluorocarbon Surfactant Inclusion Complexes,” Canadian Journal of Chemistry, Vol. 75, (NRC Canada 1997), pp. 927-933, which is incorporated by reference herein.
The test method is based on the fact that phenolphthalein will complex with cyclodextrin and in complexed form is colorless. However, it has a strong color at pH 10.5 when in non-complexed form. Other, cyclodextrin-incompatible, materials themselves complex with the cyclodextrin and prevent the phenolphthalein from doing so. Thus the higher the complexation constant of the other component with cyclodextrin, the more non-complexed phenolphthalein will be present and the stronger the observed color.
The complexation constant of a given material with cyclodextrin is obtained by an absorbance measurement in the visible region at 550 nm that is performed with a spectrophotometer at room temperature. All solutions are prepared in 4.0×10^−3 mol/l Na2CO3 solution to maintain a constant pH. The concentration of phenolphthalein is kept constant at 3.0×10^−5 mol/l. Cyclodextrin concentration and surfactant concentration are varied. Here, optimum parameter values for absorption coefficient of phenolphthalein at 550 nm is 33,000 M^−1 cm^−1, and the complexation constants of phenolphthalein with cyclodextrin and cyclodextrin derivatives are preliminary obtained. […] Complexation constants of cyclodextrin-compatible and/or cyclodextrin-incompatible materials are determined with using the free, uncomplexed phenolphthalein concentration obtained by absorbance at 550 nm.

Molecule	Complexation Constant (K)
CCCCCCCCCCCCOS(=O)(=O)[O-].[Na+] [Sodium dodecyl sulfate]	about 22000
CCCCCCCCCCCC(=O)[O-].[Na+] [Sodium laurate]	about 16000
Lauramine oxide	about 7500
Laureth-6	about 10000

Assay: Complexation constant of phenolphthalein with beta-cyclodextrin (absorbance at 550 nm)
Format: physicochemical
Conditions: room temperature, 4.0×10^−3 mol/l Na2CO3, pH 10.5
Excerpt: A spectral displacement method with phenolphthalein is used to determine the complexation constant between cyclodextrin and a given material, especially for surfactants. This method of determining complexation constants with cyclodextrins is described in detail in the following references, which are hereby incorporated herein by reference: Sasaki, K. J., Christian, S. D., and Tucker, E. E., “Study of the Stability of 1:1 Complexes Between Aliphatic Alcohols and b-Cyclodextrins in Aqueous Solution,” Fluid Phase Equilibria, Vol. 49, (Amsterdam, Elsevier Science Publishers, 1989), pp. 281-89. Further information regarding spectral displacement methods can be found in other references, e.g. in Wilson, L. D., Siddall, S. R., and Verrall R. E., “A Spectral Displacement Study of the Binding Constants of Cyclodextrin-Hydrocarbon and—Fluorocarbon Surfactant Inclusion Complexes,” Canadian Journal of Chemistry, Vol. 75, (NRC Canada 1997), pp. 927-933, which is incorporated by reference herein. […]
The complexation constant of a given material with cyclodextrin is obtained by an absorbance measurement in the visible region at 550 nm that is performed with a spectrophotometer at room temperature. […] Complexation constants of cyclodextrin-compatible and/or cyclodextrin-incompatible materials are determined with using the free, uncomplexed phenolphthalein concentration obtained by absorbance at 550 nm.

Molecule	complexation constant of phenolphthalein with beta-cyclodextrin
O=C1OC(c2ccc(O)cc2)(c2ccc(O)cc2)c2ccccc21 [phenolphthalein]	about 21,000 M^−1

Assay: CD interaction of perfume components
Format: physicochemical
Parameters: key: cyclodextrin-compatible perfume materials (i.e. having weak CD interaction); cyclodextrin-incompatible enduring (hydrophobic) perfume materials (i.e. having significant or strong CD interaction); cyclodextrin-incompatible enduring (hydrophobic) perfume materials (i.e. having significant or strong CD interaction)
Conditions: perfume component with cyclodextrin
Excerpt: The following table illustrates the molecular weight property of some of the cyclodextrin-incompatible enduring (hydrophobic) perfume materials (i.e. having significant or strong CD interaction) versus cyclodextrin-compatible perfume materials (i.e. having weak CD interaction).

Molecule	CD interaction
CC(C=O)Cc1ccc(C(C)C)cc1 (centres unmarked) [Cymal]	strong
CCOC(=O)c1ccccc1C(=O)OCC [Diethyl Phthalate]	weak
CC(=O)OC1CC2CC1C1CC=CC21 (centres unmarked) [Flor Acetate]	strong
CCC(=O)OC1CC2CC1C1CC=CC21 (centres unmarked) [Frutene]	strong
CC1COCc2cc3c(cc21)C(C)(C)C(C)C3(C)C (centres unmarked) [Galaxolide]	weak
CCCCCCOC(=O)c1ccccc1O [Hexyl Salicylate]	weak
CCCCCCC(C=O)=Cc1ccccc1 [Hexyl cinnamic Aldehyde]	weak
CC(=O)C1(C)CC2=C(CCCC2(C)C)CC1C (centres unmarked) [Iso-E Super]	weak
CCCCCCCCCCCCCC(=O)OC(C)C [Iso-propyl Myristate]	weak
CC(=O)C(C)=C(C)C(C)C(C)(C)C (centres unmarked) [Koavone]	strong
CC(C=O)Cc1ccc(C(C)(C)C)cc1 (centres unmarked) [Lilial, p-t-bucinal]	strong
CC(C)(O)CCCC1=CCC(C=O)CC1 (centres unmarked) [Lyral]	weak
CCCCCC1C(=O)CCC1CC(=O)OC (centres unmarked) [Methyl Dihydro Jasmonate]	weak
O=C(Cc1ccccc1)OCCc1ccccc1 [Phenyl-Ethyl-Phenyl Acetate]	weak
CC(=O)OC(C)(C)C1CC=C(C)CC1 (centres unmarked) [Terpinyl Acetate]	significant
CCC(C)(O)CCCC(C)C (centres unmarked) [Tetrahydrolinalol]	significant
CC(=O)OC1CCC(C(C)(C)C)CC1 (centres unmarked) [Vertenex, para-tert-butylcyclohexyl acetate]	strong
CC(=O)/C=C/C1C(C)=CCCC1(C)C (centres unmarked) [a-ionone]	strong
a-Me Ionone	strong

Assay: not given
Conditions: cited from earlier work

Molecule	solubility in water
[H]/N=C(\N/C(=N/[H])NCCCCCCNC(=N)NC(=N)Nc1ccc(Cl)cc1)Nc1ccc(Cl)cc1 [diacetate salt, 1,1′-hexamethylene bis(5-(p-chlorophenyl)biguanide)]	about 1.8%
[H]/N=C(\N/C(=N/[H])NCCCCCCNC(=N)NC(=N)Nc1ccc(Cl)cc1)Nc1ccc(Cl)cc1 [digluconate salt, 1,1′-hexamethylene bis(5-(p-chlorophenyl)biguanide)]	about 70%
